This is an account of results in publication PMC11870037 (Molecules, 2024).

Series [1] concerns the target T1, M3 muscarinic cholinergic receptor (Homo sapiens, UniProt P20309).
T1 construct: blood lymphocytes were used at a concentration of 1 × 10⁶ cells; endogenous in cells; host or cells: peripheral blood lymphocytes
In words: Muscarinic M3 receptor binding (lymphocyte suspension). The conditions noted are these: lymphocyte suspension and sections. The method, then:
Antagonist potency was determined according to literature, by measuring inhibition of RAMH-induced [35S]GTPγS binding in recombinant hH3R membranes as previously. The […]
Inverse agonist potency was conducted by measuring inhibition of basal [35S]GTPγS binding in recombinant hH3 Rmembranes. Test compound or vehicle was added to the wells, followed by [35S]GTPγS to a final concentration of 0.2 nM. Nonspecific binding was determined in the presence of 10 μM unlabeled GTPγS. The control agonist signal was determined in wells containing vehicle in place of the test compound, and the basal signal was determined in wells containing vehicle in place of both diluted compound and the RAMH […]
3. Selectivity of Compound 11b for Additional Receptors […]
transporter, 3[H]-WIN35,428, rat striatum; (2) Dopamine D1 receptor, 3[H]-SCH23390, rat striatum; (3) Dopamine D2 receptor, [3H]spiperone, rat striatum; (4) Dopamine D3 receptor, [3H] 7-OH-DPAT, rat olfactory tubercle; (5) Serotonin 5-HT2A receptor, [3H]Ketanserin, rat brain cortex;
(6) Serotonin 5-HT2C receptor, [3H]mesulergine, rat brain cortex; (7) Adrenergic α2 receptor, [3H]- rauwolscine, rat cerebral cortex; (8) Histamine H2 receptor, [3H]tiotidine, Sf9 cells and […]

The nature of series [2]: Pharmacokinetic study in rats. Type of series: in vivo. The conditions noted are these: rat, plasma. The method, then: 7. Pharmacokinetics Study
The HPLC conditions were as follows: Shimadzu LC30AD spectrometer ; column, SHIMADZU C18 (2.1 mm×50 mm, 2 μm); mobile phase A: 0.1% FA-Acetonitrile; mobile phase B: 0.1% FA-Deionized water; ﬂow rate, 0.4 mL/min; column temperature: 25 °C; UV detection was performed at 210 nm. The Mass conditions were as follows: ESI (positive), Ion spray voltage: 5500V, Curtain gass: 30, Temperature: 550°C, Ion Source Gas1: 55, Collision Gas: 7. For routine compound 11b screening, rats (n = 6/group) were dosed via the lateral tail vein at the indicated dose for iv administration (2 mg/kg, NS) or via oral gavage (20 mg/kg, Deionized water). At 0, 0.08, 0.25, 0.5,1、2、4、7、10 and 24h after administration, serial blood samples were collected from the lateral tail vein into heparinized collection tubes (approximately 0.25 mL). The plasma was separated by centrifugation, and the sample was prepared for LC/MS analysis by protein precipitation with acetonitrile. The plasma samples were analyzed for drug and internal standard via the LCMS/MS protocol.

The target of series [3] is T2, Histamine H4 receptor (Homo sapiens, UniProt Q9H3N8).
T2 construct: expressed in transfected cells; host or cells: Sf9 membranes
T2 sequence (Q9H3N8 whole entry, species assumed): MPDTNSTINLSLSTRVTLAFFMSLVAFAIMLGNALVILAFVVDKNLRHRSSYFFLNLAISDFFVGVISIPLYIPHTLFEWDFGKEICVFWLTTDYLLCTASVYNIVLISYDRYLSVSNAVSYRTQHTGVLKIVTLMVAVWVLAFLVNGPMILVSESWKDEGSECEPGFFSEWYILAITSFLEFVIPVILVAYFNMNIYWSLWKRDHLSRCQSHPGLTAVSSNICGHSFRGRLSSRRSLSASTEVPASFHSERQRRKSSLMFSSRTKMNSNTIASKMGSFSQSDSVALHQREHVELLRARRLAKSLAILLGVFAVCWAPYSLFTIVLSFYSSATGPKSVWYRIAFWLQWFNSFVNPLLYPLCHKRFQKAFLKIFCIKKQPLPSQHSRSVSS
Put plainly: Histamine H4 receptor binding ([3H]Na-Methylhistamine, Sf9 membranes). The conditions noted are these: Sf9 cells and membrane.

Series [4] is described as follows: Acute toxicity, up-and-down procedure. The conditions noted are these: female, rat, in vivo; females, F344 rats, oral. The method, then: The hERG potassium channel blocking potential was evaluated using the whole-cell patch clamp method with hERG channels expressed in HEK 293 cells as the biological material. The Axopatch 200B amplifier and Digidata 1440A converter from Molecular Devices were integral to the setup. Electrodes crafted from borosilicate glass with filament by Sutter Instrument Company were used for recordings.
Command pulse protocols for voltage clamping and data acquisition were managed by pCLAMP […]
The bath solution contained 137 mM NaCl, 5.4 mM KCl, 10 mM glucose, 10 mM HEPES, and 2 mM CaCl2, with pH adjusted to 7.5 by NaOH. The pipet solution was composed of 140 mM KCl, 1 mM MgCl2, 5 mM EGTA, 10 mM HEPES, and 5 mM Na2ATP, with pH adjusted to 7.2 using KOH. The compound 11b was dissolved in a 50% (w/v) DMSO solution at an initial concentration of 1 mM and diluted to the test concentration with the bath solution. […]
number of surviving animals was recorded after 24 h of drug administration, and the percent mortality in each group was calculated. The LD50 values were calculated by using the soft AOT425statpgm […]
group containing 16 mice. […] The duration of immobility during the last 4 minutes of a total time of 6 minutes was recorded, and animals were judged to be immobile when they floated motionless, making only necessary movements to keep their heads above the water. […]

Series [5] concerns the target Dopamine D2 receptor (Rattus norvegicus, UniProt P61169). In words: Dopamine D2 receptor binding ([3H]spiperone). The conditions noted are these: rat striatum.
The target of series [6] is NET (Rattus norvegicus, UniProt Q63380). Put plainly: Monoamine uptake transporter assay, [3H]NE uptake by NET. Type of series: biochemical.
NET, sequence (Q63380 1-617): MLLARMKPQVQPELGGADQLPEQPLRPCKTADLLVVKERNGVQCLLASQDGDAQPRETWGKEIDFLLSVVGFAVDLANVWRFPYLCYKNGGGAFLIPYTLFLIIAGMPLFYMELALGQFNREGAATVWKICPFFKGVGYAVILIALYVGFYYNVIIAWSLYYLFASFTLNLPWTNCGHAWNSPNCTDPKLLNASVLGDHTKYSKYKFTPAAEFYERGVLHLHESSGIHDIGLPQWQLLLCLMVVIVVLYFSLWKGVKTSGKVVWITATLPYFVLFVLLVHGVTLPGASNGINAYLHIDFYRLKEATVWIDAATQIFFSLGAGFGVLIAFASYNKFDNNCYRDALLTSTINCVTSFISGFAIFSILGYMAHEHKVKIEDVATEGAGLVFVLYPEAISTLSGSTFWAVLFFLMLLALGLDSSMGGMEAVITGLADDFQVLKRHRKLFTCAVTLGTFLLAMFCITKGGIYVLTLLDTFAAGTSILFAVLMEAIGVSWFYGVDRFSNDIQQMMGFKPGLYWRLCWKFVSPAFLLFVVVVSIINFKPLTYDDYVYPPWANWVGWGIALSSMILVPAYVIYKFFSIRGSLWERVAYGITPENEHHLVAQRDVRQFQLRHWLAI
Series [7] has as its system mice. In words: Tail suspension test (TST). Type of series: in vivo, mouse. The conditions noted are these: oral, immobility duration.
For series [8], the target named is NMDA receptor (Rattus norvegicus, UniProt P35439). Put plainly: NMDA receptor binding. The conditions noted are these: read-out: Ki NDMA.

Dopamine D2 receptor, sequence (P61169 1-415 isoform P61169-2): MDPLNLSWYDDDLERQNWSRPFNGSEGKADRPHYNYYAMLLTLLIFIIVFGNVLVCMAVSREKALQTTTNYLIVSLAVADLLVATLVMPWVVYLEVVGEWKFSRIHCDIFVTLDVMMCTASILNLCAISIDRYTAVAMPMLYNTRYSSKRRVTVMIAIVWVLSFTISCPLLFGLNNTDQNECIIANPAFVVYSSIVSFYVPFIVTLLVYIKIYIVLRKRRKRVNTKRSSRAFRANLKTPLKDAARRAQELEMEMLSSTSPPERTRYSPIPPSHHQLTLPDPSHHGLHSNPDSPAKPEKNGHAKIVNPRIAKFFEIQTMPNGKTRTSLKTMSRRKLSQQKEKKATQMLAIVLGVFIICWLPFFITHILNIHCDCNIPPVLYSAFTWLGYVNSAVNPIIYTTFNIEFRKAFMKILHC
T1 sequence (P20309 whole entry): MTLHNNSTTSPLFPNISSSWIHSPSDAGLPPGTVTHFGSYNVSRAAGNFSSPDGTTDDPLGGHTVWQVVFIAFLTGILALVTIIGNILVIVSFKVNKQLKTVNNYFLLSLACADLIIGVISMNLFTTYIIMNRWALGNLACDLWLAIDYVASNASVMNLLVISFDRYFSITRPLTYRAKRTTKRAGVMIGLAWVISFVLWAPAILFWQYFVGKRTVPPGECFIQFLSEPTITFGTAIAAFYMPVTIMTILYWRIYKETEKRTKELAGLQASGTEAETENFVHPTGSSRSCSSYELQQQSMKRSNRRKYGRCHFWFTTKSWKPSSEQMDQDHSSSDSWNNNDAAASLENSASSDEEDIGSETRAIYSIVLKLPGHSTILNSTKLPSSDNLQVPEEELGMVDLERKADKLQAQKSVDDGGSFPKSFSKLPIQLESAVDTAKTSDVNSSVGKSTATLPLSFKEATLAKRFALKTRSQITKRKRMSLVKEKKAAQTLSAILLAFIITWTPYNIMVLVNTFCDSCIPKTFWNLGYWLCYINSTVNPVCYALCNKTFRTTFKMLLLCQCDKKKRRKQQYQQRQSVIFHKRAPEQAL

With `CN(C)CCC(Oc1cccc2c1OCO2)c1ccc(OCCCN2CCCCC2)cc1.O=C(O)C(=O)O` (stereo not shown) [Compound 11b, 3-(benzo[d][1,3]dioxol-4-yloxy)-N,N-dimethyl-3-(4-(3-(piperidin-1-yl)propoxy)phenyl)propan-1-amine oxalate], the Ki in series [1] was greater than 1000 nM. Besides, in series [2] (2 mg/kg iv), the AUC(0-inf) was 265 ng·h/mL, the AUC(0-t) was 261 ng·h/mL, the Cmax was 224 ng/mL and the MRT last is 1.2 h. Besides, in series [2] (2 mg/kg iv), the Tmax came out at 0.08 h and the half-life was 1.3 h. Moreover, in series [2] (20 mg/kg po), the AUC(0-inf) was determined as 944 ng·h/mL, the AUC(0-t) came to 942 ng·h/mL, the Cmax turned out to be 134 ng/mL and the MRT last was 5.4 h. In series [2] (20 mg/kg po), the Tmax came out at 2 h and the half-life was 2.6 h. For the same molecule, in series [2] (20 mg/kg po vs 2 mg/kg iv, read-out: F (bioavailability)), the bioavailability is 35.6%. Moreover, the inhibition constant (Ki) in series [3] is greater than 1000 nM. This molecule also returned an LD50 at 24 h in series [4] of 512 mg/kg. The same molecule had a Ki in series [5] greater than 1000 nM. For the same molecule, in series [6] (10 μM, n = 3), the “Activation (10 μM, %) NET” value is listed as 2.7 ± 0.2% and the inhibition at 10 µM was greater than 90%. Further, in series [6] ([3H]NE uptake, antagonist assay), half-maximal inhibition (IC50) required 49.6 nM. Moreover, the “minimal effective dose (MED) in TST” value in series [7] came out at 10 mg/kg. In series [8], the inhibition constant Ki is greater than 1000 nM.
